# Measurements as given in patent US20090131302A1, “Transient receptor potential vanilloid 1 and uses thereof” (priority 2007, published 2009).
# Key:
# colon of adult rats = settings: 1 ml of 5% into descending colon at 8 weeks; tested after 4 weeks; 50-80 mm Hg; vs saline
# Procedure: For neonatal sensitization, rats were obtained as litters of 4 days old pups. […] To treat neonatal rats with capsaicin, ten day old rat pups received an infusion of 0.2 mls of 50 mg/ml capsaicin or 0.2 mls vehicle: 10% ethanol, 10% Tween 20, 80% saline or were left unmanipulated. Visceral sensitivity and inflammatory parameters were measured in these rats between 8 and 12 weeks of age. […] After 4 weeks, rats were tested for sensitivity to colorectal distention.
# The abdominal withdrawal reflex represents a characteristic set of behaviors produced by involuntary motor reflexes that are activated by colorectal distention. Visceral hypersensitivity was measured by grading the response of rats to colorectal distention as previously described.^11 Briefly, under mild sedation with 1% Brevital (Eli Lily & Co Indianapolis, Ind.) 25 mg/kg i.p.), a flexible balloon (5 cm) constructed from a surgical glove finger attached to a tygon tubing was inserted 8 cm into the descending colon and rectum via the anus and held in place by taping the tubing to the tail. Rats were placed in small Lucite cubicles (20×8×8 cm) (Bioengineering Department, UTMB) and were allowed to adapt for 30 minutes. CRD was performed by rapidly inflating the balloon to constant pressure. Pressure was measured using a sphygmomanometer connected to a pressure transducer. […]
# colon = settings: rat, in vivo
# Procedure: Colons were divided into proximal, middle and distal segments; portions of each segment were placed in 10% buffered formalin and portions were frozen in liquid nitrogen. Haematoxilin & Eosin stained parafin sections were scored for inflammation by a pathologist as described.^21 Myeloperoxidase (MPO) assays were performed as described.^22 Protein was measured by the BCA method (Pierce, Rockford, Ill.). Activity was expressed as the change in absorbance/min/mg protein. Cytokine levels were measured in colon extracts using the Biorad Bioplex assay procedure and normalized to protein.
# To rule out the possibility that the sensitizing effects of neonatal acetic acid exposure were due to inflammation/injury of the colon, the colons of P10 pups were examined.
# To determine whether persistent hypersensitivity achieved in neonatal acetic acid treated rats was due to the development of a chronic colitis in adult, H&E stained sections of the colons of 8 weeks old adult rats were examined for histopathological signs of inflammation, myoloperoxidase (MPO) activity and inflammatory cytokine levels. […] Since mast cells can affect both motility and sensitivity, mast cells in proximal, middle and distal colon were counted.
# colon of P10 rats = settings: 0.5% into colon at P10, vs saline
# Procedure: To treat neonatal rats with capsaicin, ten day old rat pups received an infusion of 0.2 mls of 50 mg/ml capsaicin or 0.2 mls vehicle: 10% ethanol, 10% Tween 20, 80% saline or were left unmanipulated. Visceral sensitivity and inflammatory parameters were measured in these rats between 8 and 12 weeks of age. […] After 4 weeks, rats were tested for sensitivity to colorectal distention.
# Visceral hypersensitivity was measured by grading the response of rats to colorectal distention as previously described.^11 Briefly, under mild sedation with 1% Brevital (Eli Lily & Co Indianapolis, Ind.) 25 mg/kg i.p.), a flexible balloon (5 cm) constructed from a surgical glove finger attached to a tygon tubing was inserted 8 cm into the descending colon and rectum via the anus and held in place by taping the tubing to the tail. […] Pressure was measured using a sphygmomanometer connected to a pressure transducer. […] Behavioral responses to colorectal distention were measured by visual observation of the abdominal withdrawal reflex by blinded observer and the assignment of an AWR score as follows: 1=Normal behavior without response 2=Contraction of abdominal muscles; 3=Lifting of abdominal wall; 4=Body arching and lifting of pelvic structures. […]
# Data is expressed as mean+/−standard error of the mean (SE).
# MAPK = settings: pups one hour after infusion
# Procedure: To determine whether acetic acid infusion of the colons of 10 days old pups activated MAPK in DRG containing soma of colon afferents, combined lumbar/sacral (LS) and thoracolumbar (TL) DRG from 4 pups/treatment group were assayed for p-p38 or ERK (p-p42/p-p44) content by western blot 1 hour after acetic acid infusion. Cervical (CE) DRG from the same animals were examined as an internal control for specificity of stimulation.
# TRPV1 = tested on: TRPV1
# Procedure: Tissues for western blot or RNA extraction were immediately frozen on dry ice and were stored at −80 until further analysis. Tissues were homogenized in extract buffer; 1% NP40, 10% glycerol, 20 mM Tris HCl […], 100 mM NaCl, 50 mM NaF, 2 mM EDTA, 1 mM EGTA, 25 mM b-glycerophosphate, 2 mM sodium pyrophosphate, 1 mM sodium orthovanadate, 1 mM phenylmethylsulfonyl fluoride and Protease Inhibitor Cocktail, 1/100 (Sigma). Proteins were resolved on 7.5% SDS-PAGE gels, transferred to PVDF membranes (BioRad), and incubated with an anti-TRPV1 antibody (PC420, Invitrogen) at 1/500. Bound antibodies were detected by ECL kit (Amersham Pharmacia Biotech, Piscataway, N.J.). The membranes were exposed to X-ray films and subsequently stripped and re-probed with a b-III-tubulin antibody (1/1000, Promega). Films were converted to TIFF image files using a HP scanner, and the TRPV1 and b-III-tubulin bands were quantified using OptiQuant software (Packard). Data was expressed as the ratio of TRPV1 to b-III-tubulin band intensity.
# RNA was extracted from frozen DRG using Triozol (Invitrogen). Starting with […] of RNA, two-step quantitative RT-PCR was performed using Applied Biosystems reagents and kits. The following forward and reverse primer and probe sequences were used: TRPV1: […] (SEQ ID NO: 2), […] (SEQ ID NO: 3); b-III-tubulin: […] (SEQ ID NO: 4), […] (SEQ ID NO: 5), […] (SEQ ID NO: 6). TAQMAN PCR was performed on an Applied Biosystems 5700. Relative changes in TRPV1 mRNA levels were calculated by the DDCt method using b-III-tubulin as a normalizer. No RT reactions were performed as controls.
# The lipid soluble fluorescent dye, DiI (1,1′-dioleyl-3,3,3′,3-tetramethylindocarbocyanine methanesulfonate, Invitrogen), 25 mg in 0.5 ml methanol, was injected in 2 μl volumes at 8-10 sites on the exposed colon from the level of the bladder to 6 cm oral. After one to two weeks, rats were perfused transcardially with 150 ml phosphate buffered saline (PBS) followed by 400 ml ice cold 4% paraformaldehyde in PBS. Dorsal root ganglia, T12 to S2 were removed and were post-fixed one hour in PFA and cryoprotected overnight in 20% sucrose in PBS. 10 micron sections on plus slides were incubated sequentially with TRPV1 antibody (PC420, Invitrogen, 1/200) and then with anti-rabbit Alexa Fluor 488 (Invitrogen, 1/200). Sections were viewed using a BX60 Olympus microscope equipped with filter cubes appropriate for DiI (Rhodamine filter) and appropriate band pass and barrier filter for Alexa-488. Images were captured and were analyzed using Metaview software. To ensure that a neuron is counted only once, serial sections were placed on consecutive slides with at least 50 microns between sections on the same slide.
# To determine whether TRPV1 expression was altered in adult rats that were sensitized with acetic acid as neonates, TRPV1 expression in DRG containing colon afferents and in the spinal cord was measured.
# TRPV1 and BDNF mRNA expression was measured in S1 DRG isolated from adult rats that were treated with acetic acid or saline as neonates by quantitative RT-PCR. […] To increase the sensitivity and specificity of this gene expression assay, measurements will be made in colon afferent neurons identified by uptake of the retrograde label fluorogold and isolated by laser capture microdissection (LCM) (FIG. 11).
# colon DRG neurons = tested on: colon DRG neurons
# Procedure: To determine whether the sensitivity of colon DRG neurons was altered in eight weeks old rats in this model, action potential threshold (rheobase) and firing frequency of acutely dissociated lumbar/sacral (LS), and thoracolumbar (TL) colon DRG neurons, identified by the presence of the retrograde label DiI, were measured in current clamp experiments.
# [1] = adult rats sensitized as neonates vs controls
# [2] = quantitative RT-PCR, vs P10 saline
compound,measurement,setting,value
CC(=O)O [acetic acid],AWR grades in response to colorectal distention,colon of adult rats,No significant differences
same,"IFN-g in proximal colon, relative to saline",colon,1.5 fold
same,"MPO activity in proximal, middle and distal colon",colon,no significant increases in activity
same,MPO values in colon of pups,colon,not significantly different
same,histology of colon of pups,colon,No histological signs of inflammation or tissue destruction
same,histopathological examination of adult colon,colon,no evidence of inflammation or abnormalities in structure
same,"levels of pro-inflammatory cytokines (IL-1b, IL-1a, IL-2, IL-6, TNF-a, IFN-g)",colon,no significant differences
same,"mast cell counts, distal colon",colon,9.3 SE 4.1 number of mast cells per high-powered field
same,"mast cell counts, middle colon",colon,7.7 SE 1.2 number of mast cells per high-powered field
same,"mast cell counts, proximal colon",colon,6.3 SE 3.4 number of mast cells per high-powered field
same,EMG activity in response to graded colorectal distention,"colon of P10 rats; adult, 40 and 60 mm Hg",significantly higher
same,AWR scores in response to colorectal distention,colon of P10 rats; tested at 8 weeks,higher mean AWR scores at all distention pressures
same,p-p38 in TL or CE DRG,MAPK,No large changes
same,p-p42 in LS DRG,MAPK,no change
same,p-p44 in LS DRG,MAPK,seven-fold increase
same,p-ERK increase in TL DRG,MAPK; also seen with saline,3-5 fold
same,p-p38 in LS DRG,MAPK; vs saline and unmanipulated,three-fold increase
same,TRPV1 protein expression in the spinal cord,TRPV1; adult rats sensitized as neonates,No change
same,TRPV1 mRNA in TL DRG,TRPV1; [1],no change
same,TRPV1 mRNA increase in LS DRG,TRPV1; [1],1.9 fold
same,TRPV1 protein expression in whole DRG extracts,"TRPV1; both TL and LS DRG, adult rats sensitized as neonates",significantly increased
same,"colon DRG neurons (DiI) expressing TRPV1 immunoreactivity, LS DRG",TRPV1; control 38.8%,54.0%
same,"colon DRG neurons (DiI) expressing TRPV1 immunoreactivity, TL DRG",TRPV1; control 40.6%,67.3%
same,BDNF mRNA expression increase in S1 DRG,TRPV1; [2],1.9 fold
same,TRPV1 mRNA expression increase in S1 DRG,TRPV1; [2],1.9 fold
same,"average rheobase, TL colon DRG neurons","colon DRG neurons; 8 weeks old rats treated at P10, control 0.47",0.29 nA
same,"average rheobase, LS colon DRG neurons","colon DRG neurons; 8 weeks old rats treated at P10, control 0.56",0.21 nA
same,"number of action potentials elicited by current injection at 2x the rheobase, LS neurons",colon DRG neurons; control 1.2,1.8
